In one data set the target is T1, human TRPA1 ion channel (Homo sapiens, UniProt O75762).
T1 construct: host or cells: HEK293
Nature of the data set: Assay A: TRPA1 assay (FLIPRtetra, AITC-induced intracellular calcium). It is filed as cell-based. Conditions: HEK293 cell line over-expressing human TRPA1, AITC agonism (final 10 μM), AUC of calcium signal, read-out: hTRPA1 IC50. Here is the method:
A human HEK293 cell line over-expressing the human TRPA1 ion channel (Perkin Elmer, Product No. AX-004-PCL) is used as a test system for compound efficacy and potency. Compound activity is determined by measuring the effect of compounds on intracellular calcium concentration induced by AITC (Allylisothiocyanat) agonism in a FLIPRtetra system (Molecular Devices).
The cells are obtained as frozen cells in cryo-vials and stored until use at −150° C.
Cells are grown in culture medium (MEM/EBSS medium with 10% FCS and 0.4 mg/ML Geneticin). […] For sub-culturing cells are detached from flasks by Versene. At the day before the assay, cells are detached, washed twice with medium (MEM/EBSS medium with 10% FCS) and 20000 cells in 20 μl/well are seeded to Poly D-Lysin biocoated 384-well plates (black, clear bottom, Cat. 356697) from Corning. Plates are incubated for 24 hours at 37° C./5% C02 before use in the assay.
The test compounds are dissolved in 100% DMSO at a concentration of 10 mM and in a first step diluted in DMSO to a concentration of 5 mM, followed by serial dilution steps in 100% DMSO. Dilution factor and number of dilution steps may vary according to needs. Typically 8 different concentrations by 1:5 dilutions are prepared, further intermediate dilutions (1:20) of the substances are carried out with HBSS/HEPES buffer (1×HEPES, Cat. 14065 from Gibco, 20 mM HEPES, Cat. 83264 from SIGMA, 0.1% BSA Cat. 11926 from Invitrogen, pH 7.4
At the assay day cells are washed 3× with assay puffer, 20 μL buffer remaining in the wells after washing. 10 μL Ca6 kit (Cat. R8191 Molecular Devices) loading buffer in HBSS/HEPES is added to the cells and the plates are incubated with lid for 120 minutes at 37°/5% CO2. 10 μL of compound or controls in HBSS/HEPES buffer/5% DMSO from the intermediate dilution plate are carefully added to the wells. […] Finally 10 μL of the agonist AITC 50 μM dissolved in HBSS/HEPES buffer/0.05% DMSO (final concentration 10 μM) is added to the wells followed by an additional read on the FLIPRtetra device for 10 minutes. The area under the signal curve (AUC) after AITC addition is used for IC50/% inhibition calculations
Data Evaluation and Calculation:
Each assay microtiter plate contains wells with vehicle (1% DMSO) controls instead of compound as controls for AITC induced luminescence (100% CTL; high controls) and is wells with vehicle controls without AITC as controls for non-specific changes in luminescence (0% CTL; low controls).
The analysis of the data is performed by the calculation of the area under signal curve of the individual wells. Based on this values the % value for the measurement of each substance concentration is calculated (AUC(sample)−AUC(low))*100/(AUC(high)−AUC(low)) using MegaLab software (in house development). The IC50 values are calculated from the % control values using MegaLab software. Calculation: [y=(ad)/(1+(x/c)^b)+d], a=low value, d=high value; x=conc M; c=IC50 M; b=hill; y=% ctrl

Data set [1] in a line: Assay B: Microsomal clearance. It is filed as in vitro ADME, human. Conditions: pooled liver microsomes 1 mg/ml, test compound 1 μM, 37° C., NADPH; clearance as % of hepatic blood flow. Here is the method: Assay B: Microsomal Clearance:
The metabolic degradation of the test compound is assayed at 37° C. with pooled liver microsomes. The final incubation volume of 100 μl per time point contains TRIS buffer pH 7.6 at RT (0.1 M), magnesium chloride (5 mM), microsomal protein (1 mg/ml) and the test compound at a final concentration of 1 μM.
Following a short preincubation period at 37° C., the reactions are initiated by addition of beta-nicotinamide adenine dinucleotide phosphate, reduced form (NADPH, 1 mM) and terminated by transferring an aliquot into solvent after different time points (0, 5, 15, 30, 60 min). Additionally, the NADPH-independent degradation is monitored in incubations without NADPH, terminated at the last time point. The [%] remaining test compound after NADPH independent incubation is reflected by the parameter c (control) (metabolic stability). The quenched incubations are pelleted by centrifugation (10000 g, 5 min).
An aliquot of the supernatant is assayed by LC-MS/MS for the amount of parent compound. The half-life (t½ INVITRO) is determined by the slope of the semilogarithmic plot of the concentration-time profile.
The intrinsic clearance (CL_[…]) is calculated by considering the amount of protein in the incubation: CL_[…] [μl/min/mg protein]=(Ln 2/(half-life [min]*protein content [mg/ml]))*1000 CL_[…]_INVIVO [ml/min/kg]=(CL_[…] [μL/min/mg protein]×MPPGL [mg protein/g liver]×liver factor [g/kg bodyweight])/1000 Qh [%]=CL [ml/min/kg]/hepatic blood flow [ml/min/kg])
(§1) Hepatocellularity, human: 120×10e6 cells/g liver
(§2) Liver factor, human: 25.7 g/kg bodyweight
(§3) Blood flow, human: 21 ml/(min×kg)

A short description of data set [2]: Assay C: Hepatocyte clearance. The data set is classed as in vitro ADME, human. Conditions: cryopreserved hepatocyte suspension, test compound 1 μM, up to 6 h; predicted clearance as % of hepatic blood flow. Here is the method:
Assay C: Hepatocyte Clearance
The metabolic degradation of the test compound is assayed in a hepatocyte suspension. Hepatocytes (cryopreserved) are incubated in Dulbecco's modified eagle medium (supplemented with 3.5 μg glucagon/500 mL, 2.5 mg insulin/500 mL and 3.75 mg/500 mL hydrocortison) containing 5% or 50% species serum.
The cells are incubated for six hours (incubator, orbital shaker) and samples (25 μl) are taken at 0, 0.5, 1, 2, 4 and 6 hours. Samples are transferred into acetonitrile and pelleted by centrifugation (5 min). The supernatant is transferred to a new 96-deepwell plate, evaporated under nitrogen and resuspended.
Decline of parent compound is analyzed by HPLC-MS/MS
CLint is calculated as follows CL_[…]=Dose/AUC=(CO/CD)/(AUD+clast/k)×1000/60. CO: initial concentration in the incubation [P M], CD: cell density of vital cells [10e6 cells/mL], AUD: area under the data [μM×h], clast: concentration of last data point [μM], k: slope of the regression line for parent decline [h−1].
The calculated in vitro hepatic intrinsic clearance can be scaled up to the intrinsic in vivo hepatic Clearance and used to predict hepatic in vivo blood clearance (CL) by the use of a liver model (well stirred model). CL_[…]_INVIVO [ml/min/kg]=(CL_[…] [μL/min/10e6 cells]×hepatocellularity [10e6 cells/g liver]×liver factor [g/kg bodyweight])/1000 CL [ml/min/kg]=CL_[…]_INVIVO [ml/min/kg]×hepatic blood flow [ml/min/kg]/(CL_[…]_INVIVO [ml/min/kg]+hepatic blood flow [ml/min/kg]) Qh [%]=CL [ml/min/kg]/hepatic blood flow [ml/min/kg])
as §1, §2, §3

T1 sequence (O75762 whole entry): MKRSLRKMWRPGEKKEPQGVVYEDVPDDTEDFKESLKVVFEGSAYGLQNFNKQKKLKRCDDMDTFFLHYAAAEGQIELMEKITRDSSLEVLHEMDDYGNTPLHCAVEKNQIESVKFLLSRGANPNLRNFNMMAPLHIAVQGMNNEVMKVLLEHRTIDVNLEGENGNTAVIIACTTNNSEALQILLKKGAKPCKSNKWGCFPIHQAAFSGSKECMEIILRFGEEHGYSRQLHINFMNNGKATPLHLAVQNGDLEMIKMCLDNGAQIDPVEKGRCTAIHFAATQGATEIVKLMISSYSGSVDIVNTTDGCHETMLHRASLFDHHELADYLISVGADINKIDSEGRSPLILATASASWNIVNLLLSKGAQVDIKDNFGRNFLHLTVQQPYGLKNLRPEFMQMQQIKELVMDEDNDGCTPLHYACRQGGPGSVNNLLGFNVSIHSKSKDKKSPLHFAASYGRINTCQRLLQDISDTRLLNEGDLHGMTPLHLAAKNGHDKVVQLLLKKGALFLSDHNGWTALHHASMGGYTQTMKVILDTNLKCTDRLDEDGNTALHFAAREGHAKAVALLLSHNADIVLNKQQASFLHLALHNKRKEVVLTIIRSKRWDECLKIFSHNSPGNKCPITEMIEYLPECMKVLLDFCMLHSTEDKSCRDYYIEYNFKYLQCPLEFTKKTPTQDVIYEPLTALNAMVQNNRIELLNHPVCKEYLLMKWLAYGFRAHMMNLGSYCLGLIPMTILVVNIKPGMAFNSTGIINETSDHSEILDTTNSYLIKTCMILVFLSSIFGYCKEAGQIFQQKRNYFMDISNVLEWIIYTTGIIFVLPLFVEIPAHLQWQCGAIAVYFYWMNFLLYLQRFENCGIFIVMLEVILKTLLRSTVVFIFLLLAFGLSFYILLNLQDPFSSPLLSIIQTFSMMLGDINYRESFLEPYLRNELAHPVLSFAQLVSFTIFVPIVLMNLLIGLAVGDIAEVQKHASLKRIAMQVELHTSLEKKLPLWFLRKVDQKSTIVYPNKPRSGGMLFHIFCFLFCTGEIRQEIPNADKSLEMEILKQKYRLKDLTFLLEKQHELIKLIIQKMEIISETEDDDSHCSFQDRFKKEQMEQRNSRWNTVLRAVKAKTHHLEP

As for `CN1C(=O)COc2ncn(Cc3nnn(C[C@H](O)c4ccc(Cl)cc4)n3)c(=O)c21` [Example 1, 3-({2-[(2R)-2-(4-chlorophenyl)-2-hydroxyethyl]-2H-1,2,3,4-tetrazol-5-yl}methyl)-5-methyl-3H,4H,5H,6H,7H-pyrimido[4,5-b][1,4]oxazine-4,6-dione], at human TRPA1 ion channel, the IC50 stood at 0.053 µM. The “human LM [% Qh]” value in data set [1] is listed as under 23 % Qh. For the same compound, in data set [2], the “human Hepatocytes [% Qh]” value was 7 % Qh.
For the compound `CN1C(=O)COc2ncn(Cc3nnn(C[C@H](O)c4cc5ccc(F)cc5s4)n3)c(=O)c21` [Example 2], the IC50 on human TRPA1 ion channel is 0.015 µM. Moreover, in data set [1], the “human LM [% Qh]” value was under 23 % Qh. Also, the “human Hepatocytes [% Qh]” value in data set [2] is given as 16 % Qh.
For `CN1C(=O)COc2ncn(Cc3nnn(C[C@H](O)c4cc5ccccc5s4)n3)c(=O)c21` [Example 3], in that order: 0.023 µM, under 23 % Qh and 18 % Qh.
For the compound `CN1C(=O)COc2ncn(Cc3nnn(C[C@H](O)c4cc5cc(Cl)ccc5o4)n3)c(=O)c21` [Example 4], the IC50 on human TRPA1 ion channel was found to be 0.032 µM. For the same compound, the “human LM [% Qh]” value in data set [1] is given as under 23 % Qh. Further, in data set [2], the “human Hepatocytes [% Qh]” value is 31 % Qh.
The matching figures for `CN1C(=O)COc2ncn(Cc3nnn(C[C@H](O)c4cc(Cl)c(Cl)s4)n3)c(=O)c21` [Example 5]: 0.039 µM, under 23 % Qh and 29 % Qh.
Consider `CN1C(=O)COc2ncn(Cc3nnn(C[C@H](O)c4cc5cc(F)ccc5o4)n3)c(=O)c21` [Example 6], for which, on human TRPA1 ion channel, the IC50 stood at 0.045 µM. In addition, in data set [1], the “human LM [% Qh]” value is reported as under 23 % Qh. Moreover, the “human Hepatocytes [% Qh]” value in data set [2] is 13 % Qh.
With `CN1C(=O)COc2ncn(Cc3nnn(C[C@H](O)c4cc5cc(F)c(F)cc5o4)n3)c(=O)c21` [Example 7], the 50% inhibitory concentration (IC50) at human TRPA1 ion channel came out at 0.06 µM. In data set [1], the “human LM [% Qh]” value is under 23 % Qh. The “human Hepatocytes [% Qh]” value in data set [2] is reported as 21 % Qh.
As to `CN1C(=O)COc2ncn(Cc3nnn(C[C@H](O)c4ccc(Br)cc4)n3)c(=O)c21` [Example 8], the half-maximal inhibitory concentration (IC50) at human TRPA1 ion channel was determined as 0.062 µM. In addition, in data set [1], the “human LM [% Qh]” value is listed as under 23 % Qh. Moreover, the “human Hepatocytes [% Qh]” value in data set [2] is recorded as 11 % Qh.
The matching figures for `Cc1ccc([C@@H](O)Cn2nnc(Cn3cnc4c(c3=O)N(C)C(=O)CO4)n2)cc1` [Example 9]: 0.073 µM, under 23 % Qh and 5 % Qh.
For `CN1C(=O)COc2ncn(Cc3nnn(C[C@H](O)c4ccc(Cl)s4)n3)c(=O)c21` [Example 10], in that order: 0.08 µM, under 23 % Qh and under 4 % Qh.
The matching figures for `CN1C(=O)COc2ncn(Cc3nnn(C[C@H](O)c4cc5cc(Cl)c(F)cc5o4)n3)c(=O)c21` [Example 11]: 0.081 µM, 34 % Qh and 29 % Qh.
On to `CN1C(=O)COc2ncn(Cc3nnn(C[C@H](O)c4cc5ccccc5o4)n3)c(=O)c21` [Example 12], for which the 50% inhibitory concentration (IC50) at human TRPA1 ion channel was 0.115 µM. Besides, the “human LM [% Qh]” value in data set [1] is recorded as under 23 % Qh. Besides, the “human Hepatocytes [% Qh]” value in data set [2] is given as 8 % Qh.
For `CN1C(=O)COc2ncn(Cc3nnn(C[C@H](O)c4cc5ccc(F)cc5o4)n3)c(=O)c21` [Example 13], in that order: 0.145 µM, under 23 % Qh and 10 % Qh.
The matching figures for `CN1C(=O)COc2ncn(Cc3nnn(C[C@H](O)c4ccc5c(c4)OCO5)n3)c(=O)c21` [Example 14]: 0.191 µM, under 23 % Qh and 5 % Qh.
For `CN1C(=O)COc2ncn(Cc3nnn(C[C@H](O)c4cc5cc(F)c(Cl)cc5o4)n3)c(=O)c21` [Example 15], the half-inhibitory concentration (IC50) at human TRPA1 ion channel came out at 0.227 µM. Also, the “human LM [% Qh]” value in data set [1] is reported as 26 % Qh. Further, in data set [2], the “human Hepatocytes [% Qh]” value is reported as 29 % Qh.
Regarding `CN1C(=O)COc2ncn(Cc3nnn(C[C@H](O)c4ccc(C#N)s4)n3)c(=O)c21` [Example 16], at human TRPA1 ion channel, the IC50 is 0.237 µM. In addition, in data set [1], the “human LM [% Qh]” value is given as under 23 % Qh. For the same compound, in data set [2], the “human Hepatocytes [% Qh]” value was under 4 % Qh.
On to `COc1ccc([C@@H](O)Cn2nnc(Cn3cnc4c(c3=O)N(C)C(=O)CO4)n2)cc1` [Example 17], for which the half-maximal inhibitory concentration (IC50) on human TRPA1 ion channel stood at 0.248 µM. In addition, the “human LM [% Qh]” value in data set [1] was under 23 % Qh. Also, in data set [2], the “human Hepatocytes [% Qh]” value was 13 % Qh.
For `CN1C(=O)COc2ncn(Cc3nnn(C[C@H](O)c4cc5cccc(F)c5o4)n3)c(=O)c21` [Example 18], the 50% inhibitory concentration (IC50) at human TRPA1 ion channel amounted to 0.153 µM. The “human LM [% Qh]” value in data set [1] was under 23 % Qh. In addition, the “human Hepatocytes [% Qh]” value in data set [2] is on record as 8 % Qh.
Consider `CN1C(=O)COc2ncn(Cc3nnn(C[C@H](O)c4ccc5cc(C#N)oc5c4)n3)c(=O)c21` [Example 19], for which, at human TRPA1 ion channel, the concentration for half-maximal inhibition (IC50) came out at 0.214 µM. In addition, the “human LM [% Qh]” value in data set [1] is listed as under 23 % Qh. In addition, the “human Hepatocytes [% Qh]” value in data set [2] was 19 % Qh.
For `CN1C(=O)CCc2ncn(Cc3nnn(C[C@H](O)c4ccc(Cl)cc4)n3)c(=O)c21` [Example 20], in that order: 0.14 µM, under 23 % Qh and under 4 % Qh.
With `CN1C(=O)CSc2ncn(Cc3nnn(C[C@H](O)c4ccc(Cl)cc4)n3)c(=O)c21` [Example 21], at human TRPA1 ion channel, the IC50 was 0.155 µM. In addition, the “human LM [% Qh]” value in data set [1] is under 23 % Qh. In addition, the “human Hepatocytes [% Qh]” value in data set [2] is recorded as 6 % Qh.

The record behind these values is US11891403B2, “Tetrazole derivatives as TRPA1 inhibitors” (Boehringer Ingelheim International GmbH, priority 2020, dated 2024).
